# Assay results published in article PMC3673949, “Small Molecule R1498 as a Well-Tolerated and Orally Active Kinase Inhibitor for Hepatocellular Carcinoma and Gastric Cancer Treatment via Targeting Angiogenesis and Mitosis Pathways” (PLoS ONE, 2013).
# How the values were obtained:
# [1] = system: HUVEC (FBS stimulated); experiment: HUVEC proliferation in 10% FBS; format: cell-based; details: Homo sapiens, 72 h
# Procedure: Each cell line was seeded in a 96-well tissue culture plate (Corning, NY) at a predetermined density in 180 µL complete medium, attached overnight and treated by compound for another 72 h. Then the medium was discarded and replaced with 10% CCK-8 (Dojindo, Kumamoto, Japan) in complete medium, then incubated the plates for another 2 h. The OD450 was measured with SpectraMAX 190 spectrophotometer (MDS, Sunnyvale, CA). A background absorbance of ODblank was subtracted from all wells.
# In VEGF-induced HUVEC proliferation assay, the HUVECs suspended in 170 µL EGM-2 with 0.5% FBS were seeded and incubated overnight. After the cells attached, 10 µL 1 µg/ml recombinant human VEGF 165 (R&D systems, Minneapolis, MN) was added to each well together with 20 µl compound solutions prepared in EGM-2 with 0.5% FBS. The CCK-8 assay as above was used for determination of cell viability.
# [2] = system: CNE-2 xenograft
# Text: The use and care of experimental animal was approved by Institutional Animal Care and Use Committee, Roche R&D Center (China). Tumor cells were inoculated into the right flank of BALB/C nu/nu female nude mice (5∼6 weeks, 16∼18 g, obtained from Sino-British SIPPR/BK Lab. Animal Ltd, Shanghai, China) at optimal density based on our in-house validation study. After the tumor was established and reached 100∼150 mm^3, the mice were randomized into ten mice per group and received treatment according to the schedule. The tumor growth was recorded three times a week with the measurement of length (L) and width (W) by caliper, and calculated as tumor volume (TV, mm^3) = 0.5*L*W*W (mm). […] The tumor regression of individual mouse was defined - the tumor volume at the end was less than the tumor volume when treatment was initiated.
# [3] = system: BEL-7404 xenograft; experiment: Xenograft efficacy study; format: in vivo, BALB/C nu/nu nude mice
# [4] = system: SGC-7901 xenograft; experiment: Xenograft efficacy study; format: in vivo, BALB/C nu/nu nude mice
# [5] = Dose range finding and toxicokinetic study; format: in vivo; details: for MTD at 2 week / AUC(0-t): po
# Procedure: Dose range finding and toxicokinetic study was carried out in rats and Beagle dogs based on in vitro metabolites identification. Wistar rats (male: 3, female 3 in each group, from Vital River, Beijing, China) were fasted overnight, and then received test articles as 0, 6.25, 50 and 100 mg/kg twice a day per oral gavage for a 14-day continuous regimen. Motility observation was applied on a daily bases to find the maximum tolerant dose for the animals. The animals were sacrificed on d14, and the following toxicology observation were carried out including body weight changes, clinical observation, gross necropsy, hematology chemistry and histopathology. On day 1 and day 14, blood samples were obtained via jugular vein puncture from all animals (if alive, using EDTA-K2 tubes). Samples were mixed gently and placed on crushed wet-ice until centrifugation, which was carried out immediately. The samples were centrifuged for approximately 15 minutes at 4°C 2,700 rpm. The resultant plasma was separated, transferred to uniquely labeled clear polypropylene tubes and frozen immediately over solid carbon dioxide (dry ice) until transferred to approximately −80°C. Each animal was bled at the following time points: approximately 5 min, 15 min, 30 min, 1, 2, 4, 8 and 24 hours post first dose on the specific day. The drug concentrations in the plasma were determined by LC-MS/MS. The pharmacokinetic analysis was performed using WinNonlin software (Version 5.2, Pharsight Corporation, CA, USA), and the pharmacokinetic parameters were calculated using a Non-compartmental model method.
smiles,measurement,setting,value
COc1ccc2c(c1)C(c1ccccc1Cl)=Nc1c(n[nH]c1C)N2 [R1498],IC50,[1],2.06 µM
same,Body weight changes%,"[2]; CNE-2, 25 mg/kg twice a day per oral gavage, before vs after treatment",16.3%
same,Tumor Regression,"[2]; CNE-2, 25 mg/kg twice a day per oral gavage, mice with regression/group",0/10
same,Final TGI%,"[2]; CNE-2, 25 mg/kg twice-daily per oral gavage, day of study termination",90%
same,Final TGI%,"[3]; BEL-7404, 12.5 mg/kg twice a day per oral gavage, day of study termination (Table S2)",90%
same,Body weight changes%,"[3]; BEL-7404, 12.5 mg/kg twice a day per oral gavage, before vs after treatment",-1.9%
same,Tumor Regression,"[3]; BEL-7404, 12.5 mg/kg twice a day per oral gavage, mice with regression/group",0/10
same,Final TGI%,"[3]; BEL-7404, 3.125 mpk, bid, PO",47%
same,Final TGI%,"[3]; BEL-7404, 6.25 mpk, bid, PO",67%
same,Final TGI%,"[4]; SGC-7901, 25 mg/kg twice a day per oral gavage, day of study termination (Table S2)",100%
same,Body weight changes%,"[4]; SGC-7901, 25 mg/kg twice a day per oral gavage, before vs after treatment",2%
same,Tumor Regression,"[4]; SGC-7901, 25 mg/kg twice a day per oral gavage, mice with regression/group",5/10
same,Final TGI%,"[4]; SGC-7901, 6.25 mpk, bid, PO",69%
same,Final TGI%,"[4]; SGC-7901, 12.5 mpk, bid, PO",83%
same,dose at which body weight loss began,[5]; female rats,12.5 mg/kg
same,MTD AUC / ED90 AUC,"[5]; female, Wistar, rat, in vivo",8.1
same,MTD at 2 week,"[5]; female, Wistar, rat, in vivo",50 mg/kg
same,AUC(0-t),"[5]; female, Wistar, rat, in vivo, 50 mg/kg",211 µg·h/mL
same,dose at which body weight loss began,[5]; male rats,100 mg/kg
same,MTD at 2 week,"[5]; male, Wistar, rat, in vivo",> 100 mg/kg
same,AUC(0-t),"[5]; male, Wistar, rat, in vivo, 100 mg/kg",> 155 µg·h/mL
